{"source": "patent US20140121216A1", "about": "“INDOLEAMINE DERIVATIVES FOR THE TREATMENT OF CENTRAL NERVOUS SYSTEM DISEASES” (Adamed Sp. z o.o., priority 2011, published 2014)", "key": {"[1]": {"molecular_target": "T1, 5-HT7 receptor, human recombinant (Homo sapiens, UniProt P34969)", "T1 construct": "purchased PerkinElmer", "T1 sequence (P34969 whole entry)": "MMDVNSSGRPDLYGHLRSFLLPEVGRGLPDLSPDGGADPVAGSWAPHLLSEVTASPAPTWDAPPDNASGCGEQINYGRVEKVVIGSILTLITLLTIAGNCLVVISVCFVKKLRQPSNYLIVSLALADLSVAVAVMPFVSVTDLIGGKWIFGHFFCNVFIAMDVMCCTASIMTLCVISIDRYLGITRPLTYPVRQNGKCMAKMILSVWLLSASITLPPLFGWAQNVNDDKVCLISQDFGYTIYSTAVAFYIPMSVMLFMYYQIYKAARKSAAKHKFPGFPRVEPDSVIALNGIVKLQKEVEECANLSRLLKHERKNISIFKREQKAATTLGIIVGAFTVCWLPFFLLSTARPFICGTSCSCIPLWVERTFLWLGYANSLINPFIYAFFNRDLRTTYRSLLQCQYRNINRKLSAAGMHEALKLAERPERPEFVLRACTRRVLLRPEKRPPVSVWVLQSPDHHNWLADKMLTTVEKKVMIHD", "assay": "Binding assay, 5-HT7 receptor ([3H]LSD)", "details": "read-out: Inhibition constant Ki 5-HT7", "protocol": "Moreover, ability of the compounds of the invention to block potassium channel hERG was tested.\nThe specific ligand binding to the receptors is defined as the difference between the total binding and the non-specific binding determined in the presence of an excess of unlabelled ligand.\nThe inhibition constants (Ki) were calculated using the Cheng Prusoff equation (Ki=IC50/(1+(L/KD)), where L=concentration of radioligand in the assay, and KD=affinity of the radioligand for the receptor). A Scatchard plot is used to determine the Kd. The IC50 values (concentration causing a half-maximal inhibition of control specific binding) and Hill coefficients (nH) were determined by non-linear regression analysis of the competition curves generated with mean replicate values using Hill equation curve fitting (Y=D+[(A−D)/(1+(C/C50)^nH)], where Y=specific binding, D=minimum specific binding, A=maximum specific binding, C=compound concentration, C50=IC50, and nH=slope factor)."}, "[2]": {"test_system": "C57BL/6J mice", "assay": "Tail suspension test in C57BL/6J mice", "assay_type": "in vivo", "protocol": "(§1) Within 24 h prior to testing, animals were habituated to experimental conditions. For this purpose mice in home cages were transferred to the experimental room for 15 min., while maintaining the lighting and the “white noise” characteristic for the experiment.\nThe testing procedure was performed on male C57BL/6J mice and based on a method of Steru et al. (The tail suspension test: a new method for screening antidepressants in mice, Psychopharmacology 85, 367-370, 1985). An automated device (Kinder Scientific) was used. After 1 h of adaptation in the experimental room with low light, the mice received the test compound intraperitoneally (at least 3 selected doses).\nAfter a specified time after administration of the test compound mice were suspended by the tail with tape to an aluminum hook connected to a strain gauge. Mice were positioned such that the base of their tail was aligned with the bottom of the hook. […] A strain gauge connected to computer software detected any movements by the mouse in order to record the number of times (events) each subject enters into an escape behavior (struggling episodes), the duration of the event, and the average strength of each event during a 6-min test session. The following settings were used in all experiments: threshold 0.20 Newtons, off delay 30 msec."}, "[3]": {"test_system": "Swiss albino mice", "assay": "Four-plate test in Swiss albino mice", "assay_type": "in vivo", "protocol": "as §1\nThe four-plate test (BIOSEB, France) was performed in a cage (25×18×16 cm) floored by four identical rectangular metal plates (8×11 cm) separated from one another by a gap of 4 mm. The top of the cage was covered by a transparent Perspex lid that prevented escape behaviour. The plates were connected to a device that generated electric shocks. Animals were placed individually in the experimental cage and following a 15-s habituation period, the animal's motivation to explore a novel environment was suppressed by an electric foot shock (0.8 mA, 0.5 s) every time it moved from one plate is to another during a 1-minute test session. This action is referred to as a ‘punished crossing’, and was followed by a 3 s shock interval, during which the animal could move across plates without receiving a shock. The measure of anxiolytic activity of the compound was the number of ‘punished crossings’ from one plate to the adjacent during 1-min test period."}, "[4]": {"test_system": "male Wistar rats", "assay": "Conflict test (Vogel test) in rats", "assay_type": "in vivo", "protocol": "Drug-naive male Wistar rats (Charles River, Sulzfeld, Germany) weighing 250-400 g were housed in polycarbonate Makrolon cages (380×200×590 mm) in an environmentally controlled, experimental room (ambient temperature 21-23° C.; relative humidity 50-60%; 12:12 light:dark cycle, lights on at 7:00 a.m.), in groups of 4. Tap water and standard lab chow (Labofeed H, WPIK, Kcynia, Poland) was available ad libitum.\nThe animals were delivered to the Animal Research Unit of the Department of Pharmacology, Institute of Psychiatry and Neurology, 2 weeks before the start of experimental procedures. During these 2 weeks all the rats were repeatedly getting used to the presence of the experimenter (handling), and to injections of saline.\nOn the day before experiments rats were weighted exact to 1 g. Animals were assigned randomly to treatment groups. All the experiments were performed on separate groups of animals, between 9:00 and 15:00. Tested compound was administered intraperitoneally (i.p.) in an injection volume of 2 ml/kg in at least 3 selected doses. Control groups received an appropriate vehiculum. […]\nThe test was performed by modified method described by Vogel et al. (Psychopharmacologia, 21 (1), 8-12, 1971) using the monitoring system TSE Systems. […] The number of licks and the number of shocks received throughout a 5-min experimental session were recorded automatically."}}}
{"compound": "O=C1CCc2ccc(OCCCCN3CCN(c4cccc5c4ccn5S(=O)(=O)c4ccccc4)CC3)cc2N1", "note": "[Compound 24, 7-(4-(4-(1-(Phenylsulphonyl)-1H-indol-4-yl)piperazin-1-yl)butoxy)-3,4-dihydroquinolin-2(1H)-one]", "values": [{"measurement": "Ki", "setting": "[1]", "result": 67, "unit": "nM"}, {"measurement": "MED (minimum effective dose), tail suspension test", "setting": "[2]; C57BL/6J mice, i.p.", "result": 1.25, "unit": "mg/kg"}, {"measurement": "activity in words, tail suspension test", "setting": "[2]; mice", "result": "active"}, {"measurement": "MED (minimum effective dose), four-plate test", "setting": "[3]; Swiss albino mice", "result": 5, "unit": "mg/kg"}, {"measurement": "activity in words, four-plate test", "setting": "[3]; mice", "result": "active"}, {"measurement": "activity in words, conflict drinking test (Vogel)", "setting": "[4]", "result": "active"}, {"measurement": "MED (minimum effective dose), conflict test (Vogel test)", "setting": "[4]; i.p.", "result": 3, "unit": "mg/kg"}]}
